Test results from patent US20180256668A1, “PHARMACEUTICAL COMPOSITION FOR TREATMENT OF OR REMISSION IN ELDERLY OR TERMINAL CANCER PATIENT” (DELTA-FLY PHARMA, INC., priority 2014, published 2018).

Key:
[1] = tested on: post-surgery multiple lung metastases of thyroid gland cancer; experiment: Case of a patient with post-surgery multiple lung metastases of thyroid gland cancer (Example 2); format: in vivo, human
Protocol: Multiple lung metastases were confirmed in a thyroid gland cancer patient and the platelet count and the neutrophil count in peripheral blood both increased. In December 2013 (Dec-13), the […] to neutrophil count ratio (NLR) in peripheral blood was more than 5, indicating poor prognosis.
Starting in March 2014 (Mar-14), Bestatin (10 mg/day) was administered alone every day.

[2] = tested on: A549 human lung carcinoma; experiment: Antitumor effect of Bestatin and gefitinib in A549 cancer-bearing mice (Example 15); format: in vivo, BALB/c nu/nu mice; settings: po, qd, 6 days/week x 3 weeks
Protocol: • [1] Production of Cancer-Bearing Mouse
A549 human lung carcinoma suspension (5×10^6 cells/100 μL PBS) was subcutaneously inoculated to BALB/c nu/nu mice (female). After cells were transplanted, mice with a tumor volume reaching about 117 mm^3 (on day 15 after the cell transplantation) were used for the following in vivo experiments, • [2] Evaluation of Antitumor Effects Attained by Combination of Bestatin and Gefitinib
Bestatin and gefitinib were respectively administered by the following doses, administration route and schedule to the above A549 cancer-bearing mice.
The antitumor effect was examined based on changes in tumor volume and changes in body weight.
The tumor volume was calculated by the following formula.
Tumor volume (mm^3)=(long side of tumor)×(short side of tumor)^2×0.5
Tumor growth inhibition (TGI) was also calculated from the tumor volume by the following formula.

[3] = tested on: post-surgery liver metastasis of colorectal cancer; experiment: Case of a terminal colorectal cancer patient with post-surgery liver metastasis (Example 1); format: in vivo, human
Protocol: Post-surgery liver metastasis was confirmed in the terminal colorectal cancer patient.
Starting in March 2014 (Mar-14), Bestatin […]) was administered alone every day.

[4] = tested on: post-surgery recurrence of non-small cell lung cancer; experiment: Case of a patient with post-surgery recurrence of non-small cell lung cancer (Example 3); format: in vivo, human; settings: Bestatin 10 mg/day alone every day from Jan-14
Protocol: The non-small cell lung cancer patient received lung right upper lobectomy, then immunotherapy, but enlargement of the right cervical lymph node was confirmed (September 2012 (Sep-12)). Subsequently, the elevation of CEA levels in peripheral blood was confirmed.
Starting in January 2014 (Jan-14), Bestatin (10 mg/day) was administered alone every day.

[5] = Bestatin 10 mg/day alone every day from Mar-14
[6] = Bestatin 10 mg/day alone every day, May-14, two months after start

SMILES	Lymphocyte in peripheral blood ([1]; 2014 Jul. 15 (After administration), Bestatin 10 mg/day alone, before administration 8%)	Neutrophil in peripheral blood ([1]; 2014 Jul. 15 (After administration), Bestatin 10 mg/day alone, before administration 83%)	Leukocyte in peripheral blood ([1]; 2014 Jul. 15 (After administration), Bestatin 10 mg/day alone, before administration (2014 Jan. 10) 9500)	neutrophil count in peripheral blood [1, 5]	platelet count in peripheral blood [1, 5]	TGI (%) On day 40 ([2]; G3: Bestatin 30 mg/kg alone)	platelet count in peripheral blood [3, 5]	tumor marker CA19-9 level in peripheral blood [3, 6]	tumor marker CEA level in peripheral blood [3, 6]	CEA level after Bestatin administration was stopped ([3]; administration stopped Jul-14)	platelet count in peripheral blood after Bestatin administration was stopped ([3]; administration stopped Jul-14)	CEA level in peripheral blood [4]	TGI (%) On day 40 ([2]; G2: gefitinib 10 mg/kg alone)
CC(C)C[C@H](NC(=O)[C@@H](O)[C@H](N)Cc1ccccc1)C(=O)O [Bestatin, (2S)-2-[(2S,3R)-3-amino-2-hydroxy-4-phenylbutanoylamino]-4-methylpentanoic acid]	22%	55%	4900	drops	drops	39%	started decreasing	started decreasing	started decreasing	quickly elevated again	quickly elevated again	drop	–
COc1cc2ncnc(Nc3ccc(F)c(Cl)c3)c2cc1OCCCN1CCOCC1 [gefitinib]	–	–	–	–	–	–	–	–	–	–	–	–	31%
